Experiments:
various enzymes [1] = target: various enzymes (Homo sapiens, UniProt P30530); format: binding; details: compound 1 uM
Method: (§1) Ambit profiling was conducted in accordance with the manufacturer's instructions.

various enzymes [2] = format: binding; details: statement in words, compared with compound 48
Method: as §1

various enzymes [3] = target: various enzymes (Homo sapiens, UniProt Q9NQU5); format: binding; details: compound 1 uM
Method: as §1

various enzymes [4] = target: various enzymes (Homo sapiens, UniProt Q13627); format: binding; details: compound 1 uM
Method: as §1

various enzymes [5] = target: T1, various enzymes (Homo sapiens, UniProt P45985); experiment: Enzyme IC50 of compound 48 (Table 3); format: biochemical; design: Enzyme IC50; other: MEK4; details: MEK4
T1 sequence (P45985 1-399): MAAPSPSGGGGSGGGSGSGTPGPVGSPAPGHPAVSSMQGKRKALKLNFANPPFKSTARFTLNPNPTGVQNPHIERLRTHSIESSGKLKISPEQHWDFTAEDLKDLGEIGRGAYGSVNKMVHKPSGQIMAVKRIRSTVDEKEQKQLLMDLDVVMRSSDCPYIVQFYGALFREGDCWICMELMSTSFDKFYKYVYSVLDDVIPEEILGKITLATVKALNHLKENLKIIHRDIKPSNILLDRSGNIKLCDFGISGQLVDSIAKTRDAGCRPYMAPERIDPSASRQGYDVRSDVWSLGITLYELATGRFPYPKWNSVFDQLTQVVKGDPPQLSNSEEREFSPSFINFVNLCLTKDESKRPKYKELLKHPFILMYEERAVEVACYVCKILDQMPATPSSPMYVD

various enzymes [6] = target: various enzymes (Homo sapiens, UniProt Q6P2M8); experiment: Enzyme IC50 of compound 48 (Table 3); format: biochemical; design: Enzyme IC50; other: CAMK1B; details: CAMK1B
Chain of various enzymes (Homo sapiens, UniProt Q6P2M8) (Q6P2M8 whole entry): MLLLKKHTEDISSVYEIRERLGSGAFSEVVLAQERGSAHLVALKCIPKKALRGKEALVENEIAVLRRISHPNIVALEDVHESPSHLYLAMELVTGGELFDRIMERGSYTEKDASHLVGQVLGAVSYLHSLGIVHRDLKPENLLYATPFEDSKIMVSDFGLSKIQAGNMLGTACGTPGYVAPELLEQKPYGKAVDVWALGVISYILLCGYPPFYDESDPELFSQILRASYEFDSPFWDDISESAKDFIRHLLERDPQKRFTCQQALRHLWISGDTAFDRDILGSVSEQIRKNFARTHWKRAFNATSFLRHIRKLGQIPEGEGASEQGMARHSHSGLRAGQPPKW

LRRK2 (G2019S) = target: T2, LRRK2 (G2019S) (Homo sapiens, UniProt Q5S007, G2019S); experiment: LRRK2(G2019S) enzyme assay (Promega ADP-Glo Kinase assay); format: biochemical; details: 25 μM ATP, read-out: Enzyme activity against LRRK2 (G2019S)
T2 construct: purchased SignalChem L10-12GG
T2 sequence (Q5S007 whole entry G2019S): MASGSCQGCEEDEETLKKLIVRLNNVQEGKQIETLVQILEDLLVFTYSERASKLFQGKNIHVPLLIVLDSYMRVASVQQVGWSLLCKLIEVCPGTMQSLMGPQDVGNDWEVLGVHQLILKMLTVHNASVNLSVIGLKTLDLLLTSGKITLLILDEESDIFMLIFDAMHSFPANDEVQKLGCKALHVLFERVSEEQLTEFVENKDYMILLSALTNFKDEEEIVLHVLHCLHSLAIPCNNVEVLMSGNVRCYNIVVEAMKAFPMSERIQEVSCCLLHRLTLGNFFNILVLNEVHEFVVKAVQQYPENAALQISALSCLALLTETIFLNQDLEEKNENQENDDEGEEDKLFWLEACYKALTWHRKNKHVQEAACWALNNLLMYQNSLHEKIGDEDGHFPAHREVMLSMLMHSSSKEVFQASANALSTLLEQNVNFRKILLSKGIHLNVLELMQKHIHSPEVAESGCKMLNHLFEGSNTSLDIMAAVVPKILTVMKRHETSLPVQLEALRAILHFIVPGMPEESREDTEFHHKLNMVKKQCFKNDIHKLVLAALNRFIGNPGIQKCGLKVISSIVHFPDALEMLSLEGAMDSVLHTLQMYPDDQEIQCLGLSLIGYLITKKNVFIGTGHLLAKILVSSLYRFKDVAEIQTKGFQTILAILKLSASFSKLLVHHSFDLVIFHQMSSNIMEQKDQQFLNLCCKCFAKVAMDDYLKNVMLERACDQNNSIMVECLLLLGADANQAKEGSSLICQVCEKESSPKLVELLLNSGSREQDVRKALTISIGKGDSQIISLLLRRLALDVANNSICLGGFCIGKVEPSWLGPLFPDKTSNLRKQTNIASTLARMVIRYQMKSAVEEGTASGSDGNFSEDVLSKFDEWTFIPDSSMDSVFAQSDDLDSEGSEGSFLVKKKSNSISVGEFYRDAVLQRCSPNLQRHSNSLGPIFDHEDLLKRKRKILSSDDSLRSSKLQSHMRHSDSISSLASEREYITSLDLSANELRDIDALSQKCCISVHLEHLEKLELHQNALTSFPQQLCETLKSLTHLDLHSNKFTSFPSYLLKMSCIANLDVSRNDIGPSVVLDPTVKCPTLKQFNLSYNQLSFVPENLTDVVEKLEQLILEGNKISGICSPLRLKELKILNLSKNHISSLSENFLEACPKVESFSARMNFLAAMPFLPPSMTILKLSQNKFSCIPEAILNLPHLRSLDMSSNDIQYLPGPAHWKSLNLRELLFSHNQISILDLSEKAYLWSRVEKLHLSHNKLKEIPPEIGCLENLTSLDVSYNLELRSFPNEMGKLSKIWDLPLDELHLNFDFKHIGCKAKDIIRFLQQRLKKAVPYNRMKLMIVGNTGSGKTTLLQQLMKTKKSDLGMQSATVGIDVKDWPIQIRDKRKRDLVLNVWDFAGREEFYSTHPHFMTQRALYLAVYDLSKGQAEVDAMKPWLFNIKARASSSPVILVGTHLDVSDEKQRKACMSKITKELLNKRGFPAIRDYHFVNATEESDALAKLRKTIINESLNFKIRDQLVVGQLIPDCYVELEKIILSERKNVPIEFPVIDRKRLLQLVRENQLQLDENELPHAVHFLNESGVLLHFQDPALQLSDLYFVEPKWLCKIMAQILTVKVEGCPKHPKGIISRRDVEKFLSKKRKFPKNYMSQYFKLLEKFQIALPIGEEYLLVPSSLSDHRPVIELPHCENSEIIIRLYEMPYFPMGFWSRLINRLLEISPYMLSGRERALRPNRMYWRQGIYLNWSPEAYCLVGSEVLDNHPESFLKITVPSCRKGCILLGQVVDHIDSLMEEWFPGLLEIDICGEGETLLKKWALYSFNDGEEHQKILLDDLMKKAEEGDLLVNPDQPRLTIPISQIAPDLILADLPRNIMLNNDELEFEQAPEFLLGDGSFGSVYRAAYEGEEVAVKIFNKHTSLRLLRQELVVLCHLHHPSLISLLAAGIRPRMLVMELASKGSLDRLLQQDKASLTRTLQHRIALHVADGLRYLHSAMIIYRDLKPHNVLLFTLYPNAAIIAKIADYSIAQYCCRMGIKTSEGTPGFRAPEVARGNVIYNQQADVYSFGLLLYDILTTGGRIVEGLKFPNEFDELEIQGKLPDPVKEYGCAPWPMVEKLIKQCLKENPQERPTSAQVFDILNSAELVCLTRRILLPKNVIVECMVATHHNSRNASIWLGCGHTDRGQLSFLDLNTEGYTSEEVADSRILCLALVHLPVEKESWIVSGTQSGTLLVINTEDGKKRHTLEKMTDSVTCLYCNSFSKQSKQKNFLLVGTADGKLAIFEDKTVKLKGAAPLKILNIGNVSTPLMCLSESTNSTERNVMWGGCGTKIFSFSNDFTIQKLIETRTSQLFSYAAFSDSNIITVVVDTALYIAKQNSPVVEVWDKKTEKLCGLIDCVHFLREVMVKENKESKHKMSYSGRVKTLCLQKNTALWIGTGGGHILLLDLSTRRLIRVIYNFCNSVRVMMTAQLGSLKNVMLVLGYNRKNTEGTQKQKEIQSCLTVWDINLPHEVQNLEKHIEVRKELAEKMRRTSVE
Method: All LRRK2 kinase inhibition assays were conducted by using Promega™ ADP-Glo™ Kinase assay systems (Cat No. V4475).
For LRRK G2019S, each compound mixed with 0.2 μg/μL of substrate, 25 μM ATP, 16 ng of LRRK2 G2019S enzyme (SignalChem, L10-12GG). All samples were diluted with kinase reaction buffer (40 mmol/L TrisHCl, 10 mmol/L MgCl2, and 0.1 μg/μL BSA, 0.05 mM DTT). After a 2 h reaction at 25° C., ADP-Glo™ (Promega™, V9102) reagent was added and incubated at rt for 40 min. Finally, kinase detection reagent (Promega™, Cat No. V6930) was added and reacted at 25° C. for 10 min. The luminescence signals were detected by using Synergy™ Neo2 microplate reader (BioTek®). Compound inhibition curve was fitted using GraphPad Prism 8.0 software.

DYRK1B = target: T3, DYRK1B (Homo sapiens, UniProt Q9Y463); experiment: Invitrogen Zlyte assay, DYRK1B; format: biochemical
T3 construct: purchased Invitrogen (assay run by the vendor)
T3 sequence (Q9Y463 whole entry): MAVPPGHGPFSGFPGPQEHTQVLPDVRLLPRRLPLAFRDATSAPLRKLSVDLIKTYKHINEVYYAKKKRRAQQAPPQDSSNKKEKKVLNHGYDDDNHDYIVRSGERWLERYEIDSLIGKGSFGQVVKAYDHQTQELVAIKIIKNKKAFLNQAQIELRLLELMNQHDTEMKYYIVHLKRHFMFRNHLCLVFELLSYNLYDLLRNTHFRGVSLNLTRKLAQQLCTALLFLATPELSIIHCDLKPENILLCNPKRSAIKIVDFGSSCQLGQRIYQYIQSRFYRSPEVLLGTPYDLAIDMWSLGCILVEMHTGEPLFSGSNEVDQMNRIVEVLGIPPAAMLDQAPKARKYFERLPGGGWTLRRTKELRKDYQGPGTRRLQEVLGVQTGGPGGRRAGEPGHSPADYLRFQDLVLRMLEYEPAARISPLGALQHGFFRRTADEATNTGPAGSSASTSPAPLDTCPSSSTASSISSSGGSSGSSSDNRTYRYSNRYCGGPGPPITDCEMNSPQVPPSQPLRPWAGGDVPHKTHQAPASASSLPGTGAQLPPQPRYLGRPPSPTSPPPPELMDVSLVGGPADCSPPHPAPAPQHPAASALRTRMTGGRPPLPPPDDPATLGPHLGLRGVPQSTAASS

[7] = system: various enzymes (Homo sapiens); format: binding; details: compound 1 uM
Method: as §1

various enzymes [8] = target: various enzymes (Homo sapiens, UniProt P09769); format: binding; details: compound 1 uM
Chain of various enzymes (Homo sapiens, UniProt P09769) (P09769 whole entry): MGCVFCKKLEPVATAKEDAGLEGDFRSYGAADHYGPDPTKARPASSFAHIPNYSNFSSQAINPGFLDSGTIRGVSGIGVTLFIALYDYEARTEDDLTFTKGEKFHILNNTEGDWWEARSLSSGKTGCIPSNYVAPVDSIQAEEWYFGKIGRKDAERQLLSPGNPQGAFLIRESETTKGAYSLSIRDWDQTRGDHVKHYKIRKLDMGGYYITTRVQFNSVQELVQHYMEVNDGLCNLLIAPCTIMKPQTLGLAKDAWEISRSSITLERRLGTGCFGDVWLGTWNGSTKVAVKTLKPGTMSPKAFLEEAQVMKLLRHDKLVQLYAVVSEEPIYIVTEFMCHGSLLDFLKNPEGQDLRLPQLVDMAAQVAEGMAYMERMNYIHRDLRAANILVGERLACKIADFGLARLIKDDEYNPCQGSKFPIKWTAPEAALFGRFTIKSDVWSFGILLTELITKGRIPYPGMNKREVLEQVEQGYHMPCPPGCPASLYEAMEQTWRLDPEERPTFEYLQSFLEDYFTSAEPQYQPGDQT
Method: as §1

Chain of various enzymes (Homo sapiens, UniProt P30530) (P30530 26-894): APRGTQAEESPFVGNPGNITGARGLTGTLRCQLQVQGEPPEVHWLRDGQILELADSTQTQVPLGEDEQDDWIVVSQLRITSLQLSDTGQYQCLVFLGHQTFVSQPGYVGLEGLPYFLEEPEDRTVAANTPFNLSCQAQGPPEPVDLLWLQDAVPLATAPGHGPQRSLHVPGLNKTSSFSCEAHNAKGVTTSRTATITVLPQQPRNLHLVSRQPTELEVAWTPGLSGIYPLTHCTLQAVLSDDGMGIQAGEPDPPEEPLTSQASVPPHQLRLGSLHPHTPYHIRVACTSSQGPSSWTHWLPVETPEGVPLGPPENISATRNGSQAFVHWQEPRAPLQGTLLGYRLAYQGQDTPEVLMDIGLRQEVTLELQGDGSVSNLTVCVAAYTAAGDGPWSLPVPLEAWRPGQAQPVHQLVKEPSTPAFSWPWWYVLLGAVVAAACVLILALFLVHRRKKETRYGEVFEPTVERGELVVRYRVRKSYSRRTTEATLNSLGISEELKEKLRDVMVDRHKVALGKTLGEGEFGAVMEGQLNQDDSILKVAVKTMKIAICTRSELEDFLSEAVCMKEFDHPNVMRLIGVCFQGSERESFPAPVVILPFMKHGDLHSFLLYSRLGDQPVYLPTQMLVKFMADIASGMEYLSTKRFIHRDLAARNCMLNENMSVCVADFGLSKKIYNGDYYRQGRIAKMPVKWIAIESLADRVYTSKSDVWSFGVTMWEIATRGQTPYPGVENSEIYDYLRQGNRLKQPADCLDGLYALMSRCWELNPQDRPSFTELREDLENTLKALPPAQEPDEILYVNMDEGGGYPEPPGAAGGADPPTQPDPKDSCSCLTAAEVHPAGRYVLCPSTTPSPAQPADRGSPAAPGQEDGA

SMILES: CC(C)N1Cc2nn(C)cc2-c2cnc3[nH]cc(c3c2)-c2cn(nc2C(F)(F)F)CCCC1=O [Compound 45, (Z)-5-isopropyl-31-methyl-13-(trifluoromethyl)-11H,21H,31H-5-aza-2(3,5)-pyrrolo[2,3-b]pyridina-1(4,1),3(4,3)-dipyrazolacyclononaphan-6-one]
- Ambit profiling: AXL (various enzymes [1]): 0
- selectivity for DYRK1A (Ambit profiling, Table 4) (various enzymes [2]): not as selective for DYRK1A as compound 48
- Ambit profiling: PAK6 (various enzymes [3]): 70
- Ambit profiling: DYRK1A (various enzymes [4]): 0.3

SMILES: CN1Cc2nn(C)c(C#N)c2-c2cnc3[nH]cc(c3c2)-c2cn(nc2C(F)(F)F)CCCC1=O [Compound 48, (Z)-31,5-dimethyl-6-oxo-13-(trifluoromethyl)-11H,21H,31H-5-aza-2(3,5)-pyrrolo[2,3-b]pyridina-1(4,1),3(4,3)-dipyrazolacyclononaphane-35-carbonitrile]
- IC50 (various enzymes [5]): 173 nM
- IC50 (various enzymes [6]): 830 nM
- IC50 (LRRK2 (G2019S)): > 100 nM

SMILES: COc1c2c(nn1C)CN(C(C)C)C(=O)CCCn1cc(c(C(F)(F)F)n1)-c1c[nH]c3ncc-2cc13 [Compound 50, (Z)-5-isopropyl-35-methoxy-31-methyl-13-(trifluoromethyl)-11H,21H,31H-5-aza-2(3,5)-pyrrolo[2,3-b]pyridina-1(4,1),3(4,3)-dipyrazolacyclononaphan-6-one]
- IC50 (DYRK1B): 146 nM
- Ambit profiling: PAK8 [7]: 86
- Ambit profiling: FGR (various enzymes [8]): 5.2
